What was measured:
Format in all cases: in vivo
[1] = tested on: oilseed rape (Brassica napus); test: Test D pre-/postemergence controlled growth environment test; conditions: Postemergence
Description: (§1) Seeds of plant species selected from blackgrass (Alopecurus myosuroides), galium (catchweed bedstraw, Galium aparine), kochia (Kochia scoparia), oilseed rape (Brassica napus), barley, spring (Hordeum vulgare), wheat, spring (Triticum aestivum), oat, wild (Avena fatua), barley, winter (Hordeum vulgare) and wheat, winter (Triticum aestivum) were planted into a silt loam soil and treated preemergence with test chemicals formulated in a non-phytotoxic solvent mixture which included a surfactant.
(§2) At the same time, plants selected from these crop and weed species and also bluegrass (annual bluegrass, Poa annua), canarygrass (littleseed canarygrass, Phalaris minor), chickweed (common chickweed, Stellaria media), bromegrass, downy (downy bromegrass, Bromus tectorum), field poppy (Papaver rhoeas), field violet (Viola arvensis), foxtail, green (Setaria viridis), deadnettle (henbit deadnettle, Lamium amplexicaule), ryegrass, Italian (Lolium multiflorum), lambsquarters (Chenopodium album), pigweed (Amaranthus retroflexus), chamomile (scentless chamomile, Matricaria inodora), Russian thistle (Salsola kali), speedwell (bird's-eye speedwell, Veronica persica), buckwheat, wild (Polygonum convolvulus), mustard, wild (Sinapis arvensis), radish, wild (Raphanus raphanistrum), windgrass (Apera spica-venti), geranium, cutleaf (Geranium dissectum) and Canada thistle (Cirsium arvense) were planted in pots containing Redi-Earth® planting medium (Scotts Company, 14111 Scottslawn Road, Marysville, Ohio 43041) comprising spaghnum peat moss, vermiculite, wetting agent and starter nutrients and treated with postemergence applications of the test chemicals formulated in the same manner. Plants ranged in height from 2 to 18 cm (1- to 4-leaf stage). Treated plants and controls were maintained in a controlled growth environment for 14 to 21 d after which time all species were compared to controls and visually evaluated. Plant response ratings, summarized in Table D, are based on a scale of 0 to 100 where 0 is no effect and 100 is complete control. A dash (-) response means no test result.

[2] = tested on: blackgrass (Alopecurus myosuroides); test: as above; conditions: Postemergence
Description: as §1, §2

[3] = tested on: wheat, winter (Triticum aestivum); test: as above; conditions: Postemergence
Description: as §1, §2

[4] = tested on: barley, winter (Hordeum vulgare); test: as above; conditions: Postemergence
Description: as §1, §2

[5] = tested on: kochia (Kochia scoparia); test: as above; conditions: Postemergence
Description: as §1, §2

[6] = tested on: barley, spring (Hordeum vulgare); test: as above; conditions: Postemergence
Description: as §1, §2

[7] = tested on: wheat, spring (Triticum aestivum); test: as above; conditions: Postemergence
Description: as §1, §2

[8] = tested on: oat, wild (Avena fatua); test: as above; conditions: Postemergence
Description: as §1, §2

[9] = tested on: galium (catchweed bedstraw, Galium aparine); test: as above; conditions: Postemergence
Description: as §1, §2

[10] = tested on: sedge, umbrella (small-flower umbrella sedge, Cyperus difformis); test: Test B flooded paddy test; conditions: Flood, 250 g ai/ha
Description: Plant species in the flooded paddy test selected from rice (Oryza sativa), sedge, umbrella (small-flower umbrella sedge, Cyperus difformis), duck salad (Heteranthera limosa) and barnyardgrass (Echinochloa crus-galli) were grown to the 2-leaf stage for testing. At time of treatment, test pots were flooded to 3 cm above the soil surface, treated by application of test compounds directly to the paddy water, and then maintained at that water depth for the duration of the test. Treated plants and controls were maintained in a greenhouse for 13 to 15 d, after which time all species were compared to controls and visually evaluated. Plant response ratings, summarized in Table B, are based on a scale of 0 to 100 where 0 is no effect and 100 is complete control. A dash (-) response means no test result.

[11] = tested on: corn (Zea mays); test: Test A postemergence greenhouse test
Description: (§3) Seeds of plant species selected from barnyardgrass (Echinochloa crus-galli), kochia (Kochia scoparia), ragweed (common ragweed, Ambrosia elatior), ryegrass, Italian (Lolium multiflorum), foxtail, giant (Setaria faberii), foxtail, green (Setaria viridis) and pigweed (Amaranthus retroflexus) were planted into a blend of loam soil and sand and treated preemergence with a directed soil spray using test chemicals formulated in a non-phytotoxic solvent mixture which included a surfactant.
(§4) At the same time, plants selected from these weed species and also wheat (Triticum aestivum), corn (Zea mays), blackgrass (Alopecurus myosuroides) and galium (catchweed bedstraw, Galium aparine) were planted in pots containing the same blend of loam soil and sand and treated with postemergence applications of test chemicals formulated in the same manner. Plants ranged in height from 2 to 10 cm and were in the one- to two-leaf stage for the postemergence treatment. Treated plants and untreated controls were maintained in a greenhouse for approximately 10 d, after which time all treated plants were compared to untreated controls and visually evaluated for injury. Plant response ratings, summarized in Table A, are based on a 0 to 100 scale where 0 is no effect and 100 is complete control. A dash (-) response means no test result.

[12] = tested on: blackgrass (Alopecurus myosuroides); test: Test A postemergence greenhouse test
Description: as §3, §4

[13] = tested on: wheat (Triticum aestivum); test: Test A postemergence greenhouse test
Description: as §3, §4

[14] = tested on: galium (catchweed bedstraw, Galium aparine); test: Test A postemergence greenhouse test
Description: as §3, §4

Cc1ccc2ccc(Cl)cc2c1-c1c(O)c(Cl)nn(C)c1=O [Cpd. No. 22]
Plant response rating, Oilseed Rape ([1]; 31 g ai/ha): 73
Plant response rating, Oilseed Rape ([1]; 62 g ai/ha): 90
Plant response rating, Blackgrass ([2]; 31 g ai/ha): 75
Plant response rating, Blackgrass ([2]; 62 g ai/ha): 82
Plant response rating, Wheat, Winter ([3]; 31 g ai/ha): 85
Plant response rating, Wheat, Winter ([3]; 62 g ai/ha): 95
Plant response rating, Barley, Winter ([4]; 31 g ai/ha): 47
Plant response rating, Barley, Winter ([4]; 62 g ai/ha): 73
Plant response rating, Kochia ([5]; 31 g ai/ha): 37
Plant response rating, Kochia ([5]; 62 g ai/ha): 58
Plant response rating, Barley, Spring ([6]; 31 g ai/ha): 67
Plant response rating, Barley, Spring ([6]; 62 g ai/ha): 85
Plant response rating, Wheat, Spring ([7]; 31 g ai/ha): 90
Plant response rating, Wheat, Spring ([7]; 62 g ai/ha): 96
Plant response rating, Oat, Wild ([8]; 31 g ai/ha): 93
Plant response rating, Oat, Wild ([8]; 62 g ai/ha): 98
Plant response rating, Galium ([9]; 31 g ai/ha): 92
Plant response rating, Galium ([9]; 62 g ai/ha): 96
Plant response rating (0 to 100 scale) [10]: 85
Plant response rating (0 to 100 scale) ([11]; 31 g ai/ha): 0
Plant response rating (0 to 100 scale) ([11]; 125 g ai/ha): 10
Plant response rating (0 to 100 scale) ([12]; 31 g ai/ha): 70
Plant response rating (0 to 100 scale) ([12]; 125 g ai/ha): 100
Plant response rating (0 to 100 scale) ([13]; 31 g ai/ha): 100
Plant response rating (0 to 100 scale) ([13]; 125 g ai/ha): 100
Plant response rating (0 to 100 scale) ([14]; 31 g ai/ha): 100
Plant response rating (0 to 100 scale) ([14]; 125 g ai/ha): 100

From patent publication US12435044B2, “Pyridazinone herbicides and pyridazinone intermediates used to prepare a herbicide” (FMC Corporation, priority 2018, dated 2025)
